Experimental data as given in ChEMBL document CHEMBL1142688, “Development and preliminary optimization of indole-N-acetamide inhibitors of hepatitis C virus NS5B polymerase” (J Med Chem, 2005).

Tests used:
[1] = target: T1, RNA-directed RNA polymerase (Hepacivirus hominis, UniProt O39930); assay: Inhibitory activity against RNA dependent RNA polymerase nonstructural protein 5B in hepatitis C virus; n=1
[2] = (§1) Cytotoxic concentration against hepatitis C virus; format: functional, Hepacivirus hominis
[3] = target: T1, RNA-directed RNA polymerase; assay: Inhibitory concentration against RNA dependent RNA polymerase nonstructural protein 5B of hepatitis C virus
Hepacivirus hominis = assay: Concentration to inhibit hepatitis C virus replication by 85%; format: functional
[4] = target: T1, RNA-directed RNA polymerase; assay: Inhibitory concentration against NS5B polymerase of Hepatitis C virus; n=1
[5] = target: T1, RNA-directed RNA polymerase; assay: Effective concentration to inhibit the activity of RNA dependent RNA polymerase nonstructural protein 5B in hepatitis C virus; n=1
Hepatitis C virus [6] = assay: as §1; format: functional, Hepacivirus hominis
[7] = Half life after administration of 20 mg/kg in dog; format: ADME, organism-based, Canis lupus familiaris; design: dose 20 mg/kg; conditions: in vivo
[8] = Total clearance after administration of 20 mg/kg in dog; format: ADME, organism-based, Canis lupus familiaris; design: dose 20 mg/kg; conditions: in vivo
Hepatitis C virus [9] = assay: Effective concentration to inhibit RNA replication in hepatitis C virus; format: functional, organism-based, Hepacivirus hominis

T1 sequence (O39930 whole entry): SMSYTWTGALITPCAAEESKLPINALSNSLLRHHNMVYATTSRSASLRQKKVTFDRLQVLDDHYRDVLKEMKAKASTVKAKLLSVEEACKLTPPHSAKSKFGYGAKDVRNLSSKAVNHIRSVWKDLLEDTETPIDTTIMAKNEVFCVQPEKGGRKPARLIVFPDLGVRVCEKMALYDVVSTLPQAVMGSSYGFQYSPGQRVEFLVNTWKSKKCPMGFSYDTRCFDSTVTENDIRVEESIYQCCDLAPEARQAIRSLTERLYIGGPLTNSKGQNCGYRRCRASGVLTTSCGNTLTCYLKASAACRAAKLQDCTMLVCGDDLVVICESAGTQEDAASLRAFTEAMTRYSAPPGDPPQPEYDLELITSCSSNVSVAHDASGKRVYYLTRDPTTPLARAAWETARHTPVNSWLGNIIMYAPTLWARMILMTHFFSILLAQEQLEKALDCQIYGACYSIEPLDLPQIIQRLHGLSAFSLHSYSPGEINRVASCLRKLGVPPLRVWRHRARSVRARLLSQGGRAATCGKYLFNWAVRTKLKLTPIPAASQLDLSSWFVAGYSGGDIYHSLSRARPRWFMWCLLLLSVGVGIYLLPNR

IC50 [1] | SMILES | CC50 [2] | also measured
40 nM | CN(C)C(=O)Cn1c(-c2cccc(Cl)c2)c(C2CCCCC2)c2ccc(C(=O)O)cc21 | > 50000 nM | 
111 nM | O=C(O)c1ccc2c(C3CCCCC3)c(-c3ccccc3)n(CCN3CCOCC3)c2c1 |  | 
11 nM | Cc1ccc(-c2c(C3CCCCC3)c3ccc(C(=O)O)cc3n2CC(=O)N2CCOCC2)cc1 |  | EC50 [5]: 300 nM; CC50 (Hepatitis C virus [6]): > 50000 nM
48 nM | O=C(O)c1ccc2c(C3CCCCC3)c(-c3ccccc3)[nH]c2c1 |  | 
59 nM | CN(C)C(=O)Cn1c(-c2ccccc2)c(C2CCCCC2)c2ccc(C(=O)O)cc21 | > 50000 nM | half-life [7]: 4.8 h; clearance [8]: 3 mL/min/kg
485 nM | O=C(O)c1ccc2c(C3CCCCC3)c(-c3ccccc3)n(S(=O)(=O)c3ccccc3)c2c1 |  | 

More lines, now with the values behind:

SMILES | IC50 [1] | CC50 [2] | also measured
O=C(O)c1ccc2c(c1)nc(-c1ccc(O)cc1F)n2C1CCCCC1 |  |  | IC50 [3]: 1.4 nM
CN(C)C(=O)Cn1c(-c2ccc(OCc3ccccc3)cc2)c(C2CCCCC2)c2ccc(C(=O)O)cc21 | 6 nM | > 50000 nM | Concentration (Hepacivirus hominis): 0.3 µM
O=C(O)c1ccc2c(c1)nc(-c1ccc(O)cc1)n2C1CCCCC1 |  |  | IC50 [3]: 3 nM
Cn1c(-c2ccccc2)c(C2CCCCC2)c2ccc(C(=O)O)cc21 | 28 nM |  | 
O=C(O)c1ccc2c(C3CCCCC3)c(-c3ccccc3)n(CC(=O)N3CCOCC3)c2c1 | 26 nM | > 50000 nM | 
CN(C)C(=O)Cn1c(-c2ccc(Cl)cc2)c(C2CCCCC2)c2ccc(C(=O)O)cc21 |  | > 50000 nM | IC50 [4]: 15 nM
O=C(O)c1ccc2c(c1)cc(-c1ccc(O)cc1)n2C1CCCCC1 |  |  | IC50 [3]: 340 nM
O=C(O)c1ccc2c(C3CCCCC3)c(-c3ccccc3)n(Cc3ccccc3)c2c1 | 37 nM |  | 
O=C(O)c1ccc2c(C3CCCCC3)c(-c3ccc(O)cc3)[nH]c2c1 |  |  | IC50 [3]: 4.8 nM
CS(=O)(=O)NC(=O)Cn1c(-c2ccccc2)c(C2CCCCC2)c2ccc(C(=O)O)cc21 | 45 nM |  | 
CN(C)C(=O)Cn1c(-c2cccc(F)c2)c(C2CCCCC2)c2ccc(C(=O)O)cc21 | 18 nM | > 50000 nM | 
Cc1ccc(-c2c(C3CCCCC3)c3ccc(C(=O)O)cc3n2CC(=O)N(C)C)cc1 | 17 nM | > 50000 nM | 
O=C(O)c1ccc2c(c1)nc(-c1ccc(OCc3cc(C(=O)N4CCC(O)CC4)ccc3-c3ccc(Cl)cc3)cc1F)n2C1CCCCC1 |  |  | IC50 [3]: < 6 nM; EC50 (Hepatitis C virus [9]): 500 nM
COc1ccc(-c2c(C3CCCCC3)c3ccc(C(=O)O)cc3n2CC(=O)N(C)C)cc1 | 18 nM | > 50000 nM | 
CN(C)C(=O)Cn1c(-c2ccccc2Cl)c(C2CCCCC2)c2ccc(C(=O)O)cc21 | 372 nM | > 50000 nM | 
